Data taken from paper PMC6914780 (2019).

Columns and labels:
[1] = system: SAM-VI WT (B. angulatum 59 metK, U1A loop, crystallization/ITC construct) (RNA, riboswitch) GGCAUUGUGCCUCGCAUUGCACUCCGCGGGGCGAUAAGUCCUGAAAAGGGAUGUC; test: ITC; settings: K+ 50 mM, Mg2+ 10 mM; 40 mM HEPES pH 7.0, 20 °C
[2] = system: SAM-VI U6C (RNA, riboswitch) GGCAUCGUGCCUCGCAUUGCACUCCGCGGGGCGAUAAGUCCUGAAAAGGGAUGUC; test: ITC; settings: K+ 50 mM, Mg2+ 10 mM; 40 mM HEPES pH 7.0, 20 °C
[3] = system: wt U39Ap SAM-VI (GAAA tetraloop) (RNA, riboswitch, 2-aminopurine at U39 (paper numbering)) GGCAUUGUGCCUCGAAAGGGGCGAUAAGUCCUGAAAAGGGAUGUC; test: stopped-flow 2-aminopurine fluorescence; settings: K+ 100 mM, Mg2+ 2 mM; 50 mM KMOPS pH 7.5, 20 °C; association rate constant
[4] = system: U6C U39Ap SAM-VI (RNA, riboswitch, 2-aminopurine at U39 (paper numbering)) GGCAUCGUGCCUCGAAAGGGGCGAUAAGUCCUGAAAAGGGAUGUC; test: stopped-flow 2-aminopurine fluorescence; settings: K+ 100 mM, Mg2+ 2 mM; 50 mM KMOPS pH 7.5, 20 °C; association rate constant
[5] = system: SAM-VI G7C (RNA, riboswitch) GGCAUUCUGCCUCGCAUUGCACUCCGCGGGGCGAUAAGUCCUGAAAAGGGAUGUC; test: ITC; settings: K+ 50 mM, Mg2+ 10 mM; 40 mM HEPES pH 7.0, 20 °C; N.D.; 0.5-1 mM ligand in syringe
[6] = system: SAM-VI U8C (RNA, riboswitch) GGCAUUGCGCCUCGCAUUGCACUCCGCGGGGCGAUAAGUCCUGAAAAGGGAUGUC; test: ITC; settings: K+ 50 mM, Mg2+ 10 mM; 40 mM HEPES pH 7.0, 20 °C; N.D.; 0.5-1 mM ligand in syringe
[7] = system: SAM-VI U8G (RNA, riboswitch) GGCAUUGGGCCUCGCAUUGCACUCCGCGGGGCGAUAAGUCCUGAAAAGGGAUGUC; test: ITC; settings: K+ 50 mM, Mg2+ 10 mM; 40 mM HEPES pH 7.0, 20 °C; N.D.; 0.5-1 mM ligand in syringe
[8] = system: SAM-VI U8A (RNA, riboswitch) GGCAUUGAGCCUCGCAUUGCACUCCGCGGGGCGAUAAGUCCUGAAAAGGGAUGUC; test: ITC; settings: K+ 50 mM, Mg2+ 10 mM; 40 mM HEPES pH 7.0, 20 °C; N.D.; 0.5-1 mM ligand in syringe
[9] = system: SAM-VI G33A (RNA, riboswitch) GGCAUUGUGCCUCGCAUUGCACUCCGCGGGGCAAUAAGUCCUGAAAAGGGAUGUC; test: ITC; settings: K+ 50 mM, Mg2+ 10 mM; 40 mM HEPES pH 7.0, 20 °C; N.D.; 0.5-1 mM ligand in syringe
[10] = system: SAM-VI A34C (RNA, riboswitch) GGCAUUGUGCCUCGCAUUGCACUCCGCGGGGCGCUAAGUCCUGAAAAGGGAUGUC; test: ITC; settings: K+ 50 mM, Mg2+ 10 mM; 40 mM HEPES pH 7.0, 20 °C; N.D.; 0.5-1 mM ligand in syringe
[11] = system: SAM-VI A34G (RNA, riboswitch) GGCAUUGUGCCUCGCAUUGCACUCCGCGGGGCGGUAAGUCCUGAAAAGGGAUGUC; test: ITC; settings: K+ 50 mM, Mg2+ 10 mM; 40 mM HEPES pH 7.0, 20 °C; N.D.; 0.5-1 mM ligand in syringe
[12] = system: SAM-VI A36C (RNA, riboswitch) GGCAUUGUGCCUCGCAUUGCACUCCGCGGGGCGAUCAGUCCUGAAAAGGGAUGUC; test: ITC; settings: K+ 50 mM, Mg2+ 10 mM; 40 mM HEPES pH 7.0, 20 °C; N.D.; 0.5-1 mM ligand in syringe
[13] = system: SAM-VI A37C (RNA, riboswitch) GGCAUUGUGCCUCGCAUUGCACUCCGCGGGGCGAUACGUCCUGAAAAGGGAUGUC; test: ITC; settings: K+ 50 mM, Mg2+ 10 mM; 40 mM HEPES pH 7.0, 20 °C; N.D.; 0.5-1 mM ligand in syringe
[14] = system: SAM-VI G38C (RNA, riboswitch) GGCAUUGUGCCUCGCAUUGCACUCCGCGGGGCGAUAACUCCUGAAAAGGGAUGUC; test: ITC; settings: K+ 50 mM, Mg2+ 10 mM; 40 mM HEPES pH 7.0, 20 °C; N.D.; 0.5-1 mM ligand in syringe
[15] = system: SAM-VI A36G/A37G/G38A (RNA, riboswitch) GGCAUUGUGCCUCGCAUUGCACUCCGCGGGGCGAUGGAUCCUGAAAAGGGAUGUC; test: ITC; settings: K+ 50 mM, Mg2+ 10 mM; 40 mM HEPES pH 7.0, 20 °C; N.D.; 0.5-1 mM ligand in syringe
[16] = system: metK 61 (U39Ap) (RNA, riboswitch, 2-aminopurine at U39 (paper numbering)) GCAAACGAAAACGUAUCAUUGUGCCUCGCUGGGGAGCGGGGCGAUAAGUCCGAAAGAGGGA; test: 2-aminopurine fluorescence; settings: K+ 100 mM, Mg2+ 2 mM; 50 mM KMOPS pH 7.5, 20 °C; 0.5 µM RNA, 15 µM SAM; no fluorescence change
[17] = system: metK 65 (U39Ap) (RNA, riboswitch, 2-aminopurine at U39 (paper numbering)) GCAAACGAAAACGUAUCAUUGUGCCUCGCUGGGGAGCGGGGCGAUAAGUCCGAAAGAGGGAUGAU; test: 2-aminopurine fluorescence; settings: K+ 100 mM, Mg2+ 2 mM; 50 mM KMOPS pH 7.5, 20 °C; 0.5 µM RNA, 15 µM SAM; >3-fold fluorescence increase
[18] = system: wt U39Ap SAM-VI (GAAA tetraloop) (RNA, riboswitch, 2-aminopurine at U39 (paper numbering)) GGCAUUGUGCCUCGAAAGGGGCGAUAAGUCCUGAAAAGGGAUGUC; test: 2-aminopurine fluorescence titration; settings: K+ 100 mM, Mg2+ 2 mM; 50 mM KMOPS pH 7.5, 20 °C; apparent
[19] = system: U6C U39Ap SAM-VI (RNA, riboswitch, 2-aminopurine at U39 (paper numbering)) GGCAUCGUGCCUCGAAAGGGGCGAUAAGUCCUGAAAAGGGAUGUC; test: 2-aminopurine fluorescence titration; settings: K+ 100 mM, Mg2+ 2 mM; 50 mM KMOPS pH 7.5, 20 °C; apparent

Nc1ncnc2c1ncn2[C@@H]1O[C@H](CN(CCO)CC[C@H](N)C(=O)O)[C@@H](O)[C@H]1O
Kd [1]: 4400 ± 500 nM | Kd [2]: 1700 ± 300 nM | kon [3]: 17,240 ± 1140 M^-1 s^-1 | kon [4]: 4230 ± 462 M⁻¹ s⁻¹

C[S+](CC[C@H](N)C(=O)O)C[C@H]1O[C@@H](n2cnc3c(N)ncnc32)[C@H](O)[C@@H]1O (stereo partly drawn)
Kd [1]: 330 ± 60 nM | Kd [2]: 460 ± 20 nM | binding [5]: no | binding [6]: no | binding [7]: no | binding [8]: no | binding [9]: no | binding [10]: no | binding [11]: no | binding [12]: no | binding [13]: no | binding [14]: no | binding [15]: no | binding [16]: no | binding [17]: yes | Kd [18]: 2040 ± 110 nM | Kd [19]: 2310 ± 60 nM | kon [3]: 24,580 ± 689 M^-1 s^-1 | kon [4]: 62,550 ± 1900 M^-1 s^-1

Nc1ncnc2c1ncn2[C@@H]1O[C@H](CSCC[C@H](N)C(=O)O)[C@@H](O)[C@H]1O
Kd [1]: 10900 ± 1300 nM | Kd [2]: 2300 ± 100 nM | kon [3]: 5500 ± 266 M⁻¹ s⁻¹ | kon [4]: 1460 ± 179 M⁻¹ s⁻¹
